{
  "source": "patent US4440778A",
  "about": "“Anti-inflammatory analgesic cataplasm and process for producing the same” (Kowa Co., Ltd., priority 1981, dated 1984)",
  "origin": "cited, not measured here",
  "key": {"[1]": {"details": "administered orally"}, "[2]": {"experiment": "not given", "remark": "listed apart in the source"}, "[3]": {"details": "mixed with and suspended in base components, pH 7 or higher"}},
  "data": [
    {"smiles": "COc1ccc2c(c1)c(CC(=O)O)c(C)n2C(=O)c1ccc(Cl)cc1", "note": "[indomethacin, Indomethacin]", "values": [
      {"measurement": "chemical stability when dissolved in an alkaline solution", "setting": "alkaline solution", "result": "chemically unstable and readily decomposable"},
      {"measurement": "solubility in an alkaline solution", "setting": "alkaline solution", "result": "soluble in an alkaline solution"},
      {"measurement": "stability in a pH range of 7 or higher", "setting": "[3]", "result": "less stable"},
      {"measurement": "solubility in water", "setting": "water", "result": "insoluble in water"},
      {"measurement": "adverse effects: central nervous system troubles", "setting": "[1]", "result": "central nervous system troubles such as frontal head ache, drowsiness, dizziness and mental disorders"},
      {"measurement": "adverse effects: gastroenteric troubles", "setting": "[1]", "result": "gastroenteric troubles such as decreased appetite, nausea, vomiting, indigestion, diarrhoea and stomach ache"},
      {"measurement": "absorbability through the skin in a pH range of 7 or higher", "setting": "[2]; [3]", "result": "less absorbable through the skin"},
      {"measurement": "percutaneous absorption", "setting": "[2]; stratum corneum and basal cell layer act as barriers", "result": "not subject to percutaneous absorption"}
    ]}
  ]
}
